Experimental data published in PubChem BioAssay AID2060895 (Molecular Pharmacology Branch, DTP, NCI, 2025).

System: PDC 899932-113-R3-J6 complex spheroid viability
Assay: Anticancer human tumor 899932-113-R3-J6-PDC patient-derived melanoma cell line growth inhibition [RAS]
Details: for IC50: curve of first compound; for viability, T/C: stronger effect = lower value
Source text: RAS pathway inhibitors in Combinations in Complex Spheroids
A high-throughput screen of multi-cell type tumor spheroids was designed to identify active combinations of RAS pathway inhibitors and targeted small molecules. Complex spheroids include a stromal component modeled by human endothelial cells (HUVEC) and fibroblasts modeled by human mesenchymal stem cells (MSCs). The concentration ranges selected for each drug and investigational agent were based upon clinically achievable concentrations if the clinical Cmax of the agent was known.
Compounds. The drugs and investigational agents: abemaciclib (NSC768073), cobimetinib (NSC768068), divarasib (GDC6063, NSC841802), docetaxel (NSC628503), GDC-1971 (RLY-1971, NSC841576), gemcitabine (NSC613327), inavolisib (NSC800729), ipatasertib (NSC767898), KB-0742 (NSC834161), MRTX-1133 (NSC836407), osimertinib (NSC779217), RMC-4630 (NSC839698), RMC-6236 (NSC851965), RMC-6291 (NSC852671), Ro-3306 (NSC812927), sapanisertib (NSC764658), SN-38 (NSC673596), staurosporine (NSC755774), SY5609 (NSC837396), and tovorafenib (DAY101, NSC766906), were obtained from the National Cancer Institute (NCI) Developmental Therapeutics Program Chemical Repository. The FDA-approved anticancer drug set is available from the NCI Developmental Therapeutics Program. […] The stock solutions were prepared in dimethyl sulfoxide (DMSO, Sigma-Aldrich, St. Louis, MO, cat. D2650) at 800-fold the tested concentration and stored at -70 degrees C prior to their use. All drugs and investigational agents were tested over a range starting from a high concentration at or near the clinical Cmax and decreasing in half-log increments. If the clinical Cmax for an agent had not been determined, the highest concentration tested was 10 microM.
Cell Culture. All cells were maintained in an incubator at 37 degrees C and 5% CO2 with 95% humidity. The PDC lines were cultured according to standard operating procedures established by the NCI PDMR. All PDCs were thawed and cultured in Matrigel-coated flasks prepared with a working solution of 1X Ham's F-12 nutrient mix, without supplementation (Invitrogen, Waltham, MA, cat. 11765054), 100 U/mL penicillin-streptomycin (Invitrogen, cat. 15140122), and 2.5% Matrigel (Corning Inc., Corning, NY, cat. 354248) for the first three passages. The 362531-283-R-J2-PDC and 782815-120-R-J1-PDC lines were cultured in 6C/Colon 1B media, which includes advanced DMEM/F-12 (Thermo Fisher Scientific, cat. 12634028), 10 mM HEPES (Thermo Fisher Scientific, cat. 15630080), 1X GlutaMAX supplement (Thermo Fisher Scientific, cat. 35050061), 0.1 mg/mL primocin (InvivoGen, San Diego, CA, cat. ant-pm-2), 10% defined fetal bovine serum, heat inactivated (HyClone Laboratories Inc., Logan, UT, cat. SH30070.03HI), 50% L-WRN conditioned media (ATCC, cat. CRL-3276), 1.25 mM N-Acetyl-L-cysteine (Sigma-Aldrich, cat. A9165), 10 mM nicotinamide (Sigma-Aldrich, cat. N0636), 1X B-27 supplement (Thermo Fisher Scientific, cat. 17504044), 1X N-2 supplement (Thermo Fisher Scientific, cat. 17502048), 50 ng/mL human EGF (Thermo Fisher Scientific, cat. PHG0311), and 10 microM Y-27632 dihydrochloride (Tocris Bioscience, cat. 1254). The K12877-001-R-J1-PDC line was cultured in 6I media, which includes all 6C/Colon 1B media plus 10 ng/mL human FGF-10 (PeproTech, cat. 100-26), 1 ng/mL human FGF-2 (PeproTech, cat. 100-18B), 1 µM prostaglandin E2 (Tocris Bioscience, cat. 2296), […] hydrocortisone (Sigma-Aldrich, cat. H4001), and […] bovine insulin (Sigma-Aldrich, cat. I6634). The K86415-001-R-J1-PDC line was cultured in 6D media, which includes all 6C/Colon 1B media components minus the L-WRN conditioned media. The 485176-168-R4-J1-PDC was cultured in PANC media, which includes all 6C/Colon 1B media plus 100 ng/mL human FGF-10 (PeproTech, cat. 100-26), 500 nM SB-431542 (Selleckchem, cat. S1067), and 10 nM gastrin (Tocris Bioscience, cat. 3006). […]

[1] = second compound 0.0316 µM, first compound 0.0316 µM
[2] = second compound 0.0316 µM, first compound 0.1 µM
[3] = second compound 0.1 µM, first compound 0.0316 µM
[4] = second compound 0.1 µM, first compound 0.1 µM
[5] = second compound 0.316 µM, first compound 0.0316 µM
[6] = second compound 0.316 µM, first compound 0.1 µM
[7] = second compound 1 µM, first compound 0.0316 µM
[8] = second compound 1 µM, first compound 0.1 µM
[9] = second compound 3.16 µM, first compound 0.0316 µM
[10] = second compound 3.16 µM, first compound 0.1 µM
[11] = second compound 10 µM, first compound 0.0316 µM
[12] = second compound 10 µM, first compound 0.1 µM
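For viability, T/C in this document: spheroids exposed to agents for seven days before readout; 100% = DMSO vehicle control wells.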

Compound `CC(C)NCC(C(=O)N1CCN(c2ncnc3c2C(C)CC3O)CC1)c1ccc(Cl)cc1` (centres undefined) + C#Cc1c(F)ccc2cc(O)cc(-c3ncc4c(N5CC6CCC(C5)N6)nc(OCC56CCCN5CC(F)C6)nc4c3F)c12 has an IC50 (second compound 0.0316 µM) of 5.47 µM, an IC50 (second compound 0.1 µM) of 5.82 µM and an IC50 (second compound 0.316 µM) of 7.53 µM. The IC50 (second compound 1 µM) was 7.94 µM, the IC50 (second compound 3.16 µM) was 8.55 µM and the IC50 (second compound 10 µM) was 6.45 µM. It also gave a viability, T/C [1] of 99.5%, a viability, T/C [2] of 113% and a viability, T/C (second compound 0.0316 µM, first compound 0.316 µM) of 103%. It also gave a viability, T/C (second compound 0.0316 µM, first compound 1 µM) of 76.9%, a viability, T/C (second compound 0.0316 µM, first compound 3.16 µM) of 67.4% and a viability, T/C (second compound 0.0316 µM, first compound 10 µM) of 34.8%. For the same compound, the viability, T/C [3] was 108%, the viability, T/C [4] was 109% and the viability, T/C (second compound 0.1 µM, first compound 0.316 µM) was 97.3%. It also gave a viability, T/C (second compound 0.1 µM, first compound 1 µM) of 86%, a viability, T/C (second compound 0.1 µM, first compound 3.16 µM) of 68.9% and a viability, T/C (second compound 0.1 µM, first compound 10 µM) of 34.4%. The viability, T/C [5] was 105%, the viability, T/C [6] was 115% and the viability, T/C (second compound 0.316 µM, first compound 0.316 µM) was 93.7%. For the same compound, the viability, T/C (second compound 0.316 µM, first compound 1 µM) was 99.6%, the viability, T/C (second compound 0.316 µM, first compound 3.16 µM) was 72% and the viability, T/C (second compound 0.316 µM, first compound 10 µM) was 42.5%. It also gave a viability, T/C [7] of 110%, a viability, T/C [8] of 105% and a viability, T/C (second compound 1 µM, first compound 0.316 µM) of 107%. The viability, T/C (second compound 1 µM, first compound 1 µM) was 94.8%, the viability, T/C (second compound 1 µM, first compound 3.16 µM) was 83.1% and the viability, T/C (second compound 1 µM, first compound 10 µM) was 41.5%. For the same compound, the viability, T/C [9] was 110%, the viability, T/C [10] was 120% and the viability, T/C (second compound 3.16 µM, first compound 0.316 µM) was 97.6%. It also gave a viability, T/C (second compound 3.16 µM, first compound 1 µM) of 101%, a viability, T/C (second compound 3.16 µM, first compound 3.16 µM) of 80.7% and a viability, T/C (second compound 3.16 µM, first compound 10 µM) of 44.8%. The viability, T/C [11] was 125%, the viability, T/C [12] was 112% and the viability, T/C (second compound 10 µM, first compound 0.316 µM) was 101%. For the same compound, the viability, T/C (second compound 10 µM, first compound 1 µM) was 88.5%, the viability, T/C (second compound 10 µM, first compound 3.16 µM) was 79.6% and the viability, T/C (second compound 10 µM, first compound 10 µM) was 33.7%.

Compound `CC(C)n1nc(-c2ccc3oc(N)nc3c2)c2c(N)ncnc21` + C#Cc1c(F)ccc2cc(O)cc(-c3ncc4c(N5CC6CCC(C5)N6)nc(OCC56CCCN5CC(F)C6)nc4c3F)c12 has an IC50 (second compound 0.0316 µM) of 0.0903 µM, an IC50 (second compound 0.1 µM) greater than 0.1 µM and an IC50 (second compound 0.316 µM) greater than 0.1 µM. The IC50 (second compound 1 µM) was greater than 0.1 µM, the IC50 (second compound 3.16 µM) was greater than 0.1 µM and the IC50 (second compound 10 µM) was greater than 0.1 µM. The viability, T/C (second compound 0.0316 µM, first compound 0.000316 µM) was 104%, the viability, T/C (second compound 0.0316 µM, first compound 0.001 µM) was 100% and the viability, T/C (second compound 0.0316 µM, first compound 0.00316 µM) was 105%. The viability, T/C (second compound 0.0316 µM, first compound 0.01 µM) was 91.8%, the viability, T/C [1] was 68.2% and the viability, T/C [2] was 48.1%. For the same compound, the viability, T/C (second compound 0.1 µM, first compound 0.000316 µM) was 114%, the viability, T/C (second compound 0.1 µM, first compound 0.001 µM) was 105% and the viability, T/C (second compound 0.1 µM, first compound 0.00316 µM) was 95.7%. It also gave a viability, T/C (second compound 0.1 µM, first compound 0.01 µM) of 100%, a viability, T/C [3] of 73.4% and a viability, T/C [4] of 52.5%. It also gave a viability, T/C (second compound 0.316 µM, first compound 0.000316 µM) of 103%, a viability, T/C (second compound 0.316 µM, first compound 0.001 µM) of 97.6% and a viability, T/C (second compound 0.316 µM, first compound 0.00316 µM) of 115%. It also gave a viability, T/C (second compound 0.316 µM, first compound 0.01 µM) of 100%, a viability, T/C [5] of 76.4% and a viability, T/C [6] of 50%. For the same compound, the viability, T/C (second compound 1 µM, first compound 0.000316 µM) was 104%, the viability, T/C (second compound 1 µM, first compound 0.001 µM) was 104% and the viability, T/C (second compound 1 µM, first compound 0.00316 µM) was 110%. The viability, T/C (second compound 1 µM, first compound 0.01 µM) was 96.5%, the viability, T/C [7] was 75% and the viability, T/C [8] was 52.4%. It also gave a viability, T/C (second compound 3.16 µM, first compound 0.000316 µM) of 116%, a viability, T/C (second compound 3.16 µM, first compound 0.001 µM) of 128% and a viability, T/C (second compound 3.16 µM, first compound 0.00316 µM) of 118%. It also gave a viability, T/C (second compound 3.16 µM, first compound 0.01 µM) of 112%, a viability, T/C [9] of 85.9% and a viability, T/C [10] of 51.6%. For the same compound, the viability, T/C (second compound 10 µM, first compound 0.000316 µM) was 115%, the viability, T/C (second compound 10 µM, first compound 0.001 µM) was 110% and the viability, T/C (second compound 10 µM, first compound 0.00316 µM) was 123%. For the same compound, the viability, T/C (second compound 10 µM, first compound 0.01 µM) was 115%, the viability, T/C [11] was 85.8% and the viability, T/C [12] was 50.7%.
